In patent US20240390328A1, “PHARMACEUTICAL COMPOSITION CONTAINING AS ACTIVE INGREDIENT COMPOUND CONJUGATED TO G4 STRUCTURES OF CORONAVIRUSES FOR PREVENTION OR TREATMENT OF CORONAVIRUS INFECTIOUS DISEASES” (priority 2020, published 2024):
Read-outs that look alike come from different tables or passages of the source.

Key:
[1] = tested on: SARS-COV-2 RNA G4, position 1574 (NsP2); assay: CD thermal melting analysis, G4 No. 4; type: binding; settings: G4 No. 4, position 1574, NsP2; 15 μM RNA G4, 30 μM compound
Method: (§1) For melting, the samples were heated at 25 to 95° C. at 2° C./min with a data pitch of 0.5° C. CD melting analyses were performed with and without G4-binding compounds. The ratio of RNA: G4-binding compound was set to a molar ratio of 1:2. 15 μM RNA G4 was treated with 30 μM G4-binding compound and incubated at room temperature in a buffer comprising 10 mM Tris-HCl (pH 7.5) and 100 mM KCl for 30 minutes. Ellipticity was measured at 265 nm. Thereafter, data were normalized and plotted in OriginPro 2017 to calculate Tm values.
(§2) In addition, 15 μM RNA G4 was treated with 30 μM compound and incubated, and a CD thermal melting curve of RNA G4 (15 μM) was obtained in the presence or absence of the G4-binding compound. Furthermore, the effect of G4-binding compounds on the stability of SARS-COV-2 G4 was confirmed by measuring the difference in melting temperature (ΔTm). The results are illustrated in FIGS. 6A and 6B.

[2] = tested on: SARS-COV-2 RNA G4, position 29234 (Nucleocapsid protein); assay: CD thermal melting analysis, G4 No. 25; type: binding; settings: G4 No. 25, position 29234, Nucleocapsid protein; 15 μM RNA G4, 30 μM compound
Method: as §1, §2

HCoV-OC43 = HCoV-OC43 dose response curve analysis, virion production (plaque assay), HCT-8 cells; type: cell-based; settings: Betacoronavirus 1, OC43, 0.05 MOI, 72 hours after infection
[3] = tested on: SARS-COV-2 RNA G4, position 28781 (Nucleocapsid protein); assay: CD thermal melting analysis, G4 No. 22; type: binding; settings: G4 No. 22, position 28781, Nucleocapsid protein; 15 μM RNA G4, 30 μM compound
Method: as §1, §2

[4] = tested on: SARS-COV-2 RNA G4, position 15448 (NsP12); assay: CD thermal melting analysis, G4 No. 14; type: binding; settings: G4 No. 14, position 15448, NsP12; 15 μM RNA G4, 30 μM compound
Method: as §1, §2

[5] = tested on: SARS-COV-2 RNA G4, position 28903 (Nucleocapsid protein); assay: CD thermal melting analysis, G4 No. 23; type: binding; settings: G4 No. 23, position 28903, Nucleocapsid protein; 15 μM RNA G4, 30 μM compound
Method: as §1, §2

[6] = tested on: SARS-COV-2 RNA G4, position 29123 (Nucleocapsid protein); assay: CD thermal melting analysis, G4 No. 24; type: binding; settings: G4 No. 24, position 29123, Nucleocapsid protein; 15 μM RNA G4, 30 μM compound
Method: as §1, §2

[7] = tested on: SARS-COV-2 RNA G4, position 18296 (NsP12); assay: CD thermal melting analysis, G4 No. 15; type: binding; settings: G4 No. 15, position 18296, NsP12; 15 μM RNA G4, 30 μM compound
Method: as §1, §2

SARS-COV-2 [8] = assay: microbe, parasite or virus in culture; type: cell-based; settings: Severe acute respiratory syndrome coronavirus 2, Vero cells, read-out: IC50, virion production
N1-WT-G4-353 (Nsp1 G4) = assay: In-vitro transcription/translation (IVT) analysis, EYFP reporter western blot, N1-WT-G4-353; type: biochemical, SARS-COV-2
SARS-COV-2 [9] = assay: microbe, parasite or virus in culture; type: cell-based; settings: Severe acute respiratory syndrome coronavirus 2; Vero cells, 0.0125 MOI, 24 hours; read-out: IC50, suppressing SARS-COV-2 infection (N protein expression)
N1-Mut-G4-3467 = type: biochemical, SARS-COV-2; settings: N1-Mut-G4-3467, 5, 15, 25 and 50 μM
HEK293T cells = assay: Cell viability analysis (EZ Cytox), HEK293T cells; type: cell-based, Human; settings: up to 75 μM
Method: (§3) Human embryonic kidney (HEK293T) cells and Vero cells were maintained in high-glucose Dulbecco's Modified Eagle's Medium (DMEM) supplemented with 10% fetal bovine serum (FBS) and 1% penicillin-streptomycin, and cultured in a humidified incubator at 37° C. and 5% CO2.
(§4) Cytotoxicity was analyzed using an EZ Cytox assay kit (DogenBio, Korea). HEK293T and Vero cells were put into a 96-well plate at a density of 2×10^4 cells/well in a medium volume of 100 μl/well and cultured at 37° C. for 24 hours. After 24 hours, the cells were treated with the G4-binding compound at various concentrations (0.1, 0.5, 1, 2.5, 5.5, 7.5, 10, 25, 50, and 75 μM) and cultured at 37° C. for 24 hours or 48 hours. Cell viability (%) was calculated by measuring the absorbance value at 455 nm (Luminescence multi-mode microplate reader Synergy™ Neo2) and using the following Equation 1. All experiments were performed in triplicate, and cells untreated with the compound were used as a control. DMEM with the EZ Cytox reagent was used as a blank.
(§5) The toxicity of PDS and PhenDC3 was confirmed in HEK293T cells and Vero cells. The results are illustrated in FIGS. 7A to 7D.

N1-WT-G4-3467 (Nsp3 G4) = assay: In-vitro transcription/translation (IVT) analysis, EYFP reporter western blot, N1-WT-G4-3467; type: biochemical, SARS-COV-2; settings: N1-WT-G4-3467, compound at 15 to 50 μM
Vero cells = assay: Cell viability analysis (EZ Cytox), Vero cells; type: cell-based; settings: up to 75 μM after 48 hours
Method: as §3, §4, §5

Row | Structure (SMILES) | Tm in ° C. with compound [2] [°C] | ΔTm [2] [°C] | Tm in ° C. with compound [4] [°C] | ΔTm [4] [°C] | Tm in ° C. with compound [5] [°C] | ΔTm [5] [°C] | Tm in ° C. with compound [6] [°C] | ΔTm [6] [°C] | Tm in ° C. with compound [7] [°C] | ΔTm [7] [°C] | other results
1 | CN1CCC[C@H]1CCNC(=O)c1cn2c3c(c(N4CCC(c5cnccn5)C4)c(F)cc3c1=O)Oc1cc3ccccc3cc1-2 (stereo partly drawn) [CX-3543, 15-fluoro-N-[2-[(2S)-1-methylpyrrolidin-2-yl]ethyl]-18-oxo-14-(3-pyrazin-2-ylpyrrolidin-1-yl)-12-oxa-1-azapentacyclo [11.7.1.0^2,11.0^4,9.0^17,21]henicosa-2,4,6,8, 10, 13 (21), 14,16,19-nonaene-19-carboxamide] | 58.52 | −3.65 | 58.58 | 5.96 | 63.45 | 6.34 | 62.59 | 8.19 | 63.64 | 4.81 | Tm in ° C. with compound [1]: 53.43 °C; ΔTm [1]: 0.05 °C; IC50 (HCoV-OC43): 1400 nM; Tm in ° C. with compound [3]: 82.9 °C; ΔTm [3]: 18.2 °C
2 | NCCOc1cc(C(=O)Nc2cc(OCCN)c3ccccc3n2)nc(C(=O)Nc2cc(OCCN)c3ccccc3n2)c1 [PDS, 4-(2-aminoethoxy)-N2,N6-bis(4-(2-aminoethoxy)quinolin-2-yl)pyridine-2,6-dicarboxamide] | 80.2 | 18.03 | 56.5 | 3.88 | 60.46 | 3.35 | 73.83 | 19.43 | 82.4 | 23.57 | IC50 (SARS-COV-2 [8]; 24 hours after infection): 1450 nM; IC50 (SARS-COV-2 [8]; 48 hours after infection): 2770 nM; EYFP expression reduced by (N1-WT-G4-353 (Nsp1 G4); N1-WT-G4-353, compound at 50 μM): 65%; suppressing EYFP reporter expression (N1-WT-G4-353 (Nsp1 G4); N1-WT-G4-353, concentrations less than 50 μM): not effective; IC50 (SARS-COV-2 [9]): 9.45 µM; EYFP expression, concentration-dependent suppression (N1-Mut-G4-3467): not suppressed; cytotoxicity in HEK293T cells (HEK293T cells): safe to use; EYFP expression suppressed by (N1-WT-G4-3467 (Nsp3 G4)): 60%; cytotoxicity in Vero cells (Vero cells): no cytotoxicity was observed
